From PMC3950977 (Nanotechnology, 2011)
Peptide text beside a SMILES is read from it. * marks the point of attachment. X1 = NC(=O)CCOCCOCCOCCOCCOCCOCCOCCOCCOCCOCCOCCOCCOCCOCCOCCOCCOCCOCCOCCOCCOCCOCCOCCOCCOCCOCCOCCOCCN*

Tests used:
[1] = transmission electron microscopy and dynamic light scattering; cited from earlier work
[2] = Peptide degradation by proteinase K; type: in vitro ADME; conditions: isolated enzyme proteinase k, pH 7.1

| Compound | diameter of self-assembled nanospheres [1] [nm] | half-life [2] [min] |
| --- | --- | --- |
| CC[C@H](C)[C@H](NC(=O)[C@@H](NC(=O)[C@H](Cc1ccccc1)NC(=O)[C@H](CC(C)C)NC(=O)[C@@H](N)CC(C)C)C(C)C)C(=O)N[C@H](C(=O)N[C@@H](CC(C)C)C(=O)N1CCC[C@H]1C(=O)N[C@@H](Cc1ccccc1)C(=O)N[C@@H](Cc1c[nH]c2ccccc12)C(=O)N[C@@H](C)C(=O)N[C@H](C(=O)N[C@@H](CC(=O)O)C(=O)N[C@@H](C)C(=O)N[C@H](C(=O)N[C@@H](C)C(=O)N[C@@H](CC(N)=O)C(=O)N[C@@H](Cc1c[nH]c2ccccc12)C(=O)N[C@@H](Cc1ccc(O)cc1)C(=O)N[C@@H](Cc1ccccc1)C(=O)NCC(=O)N[C@@H](CC(N)=O)C(=O)N[C@@H](CC(=O)O)C(=O)N[C@@H](CC(=O)O)C(=O)NCCOCCOCCOCCOCCOCCOCCOCCOCCOCCOCCOCCOCCOCCOCCOCCOCCOCCOCCOCCOCCOCCOCCOCCOCCOCCOCCOCCOCCC(N)=O)C(C)C)C(C)C)[C@@H](C)O [x4-2-6] (H-LLFVITLPFWAVDAVANWYFGNDD-X1) | 10 | 11.8 ± 1.8 |
| CC[C@H](C)[C@H](NC(=O)[C@@H](NC(=O)[C@@H](N)Cc1ccccc1)C(C)C)C(=O)N[C@H](C(=O)N[C@@H](CC(C)C)C(=O)N1CCC[C@H]1C(=O)N[C@@H](Cc1ccccc1)C(=O)N[C@@H](Cc1c[nH]c2ccccc12)C(=O)N[C@@H](C)C(=O)N[C@H](C(=O)N[C@@H](CC(=O)O)C(=O)N[C@@H](C)C(=O)N[C@H](C(=O)N[C@@H](C)C(=O)N[C@@H](CC(N)=O)C(=O)N[C@@H](Cc1c[nH]c2ccccc12)C(=O)N[C@@H](Cc1ccc(O)cc1)C(=O)N[C@@H](Cc1ccccc1)C(=O)NCC(=O)N[C@@H](CC(N)=O)C(=O)N[C@@H](CC(=O)O)C(=O)N[C@@H](CC(=O)O)C(=O)NCCOCCOCCOCCOCCOCCOCCOCCOCCOCCOCCOCCOCCOCCOCCOCCOCCOCCOCCOCCOCCOCCOCCOCCOCCOCCOCCOCCOCCC(N)=O)C(C)C)C(C)C)[C@@H](C)O [x4-2-9] (H-FVITLPFWAVDAVANWYFGNDD-X1) |  | 2.9 ± 1.2 |
